From the supplement of paper PMC11061612

How the values were obtained:
AZD5363 = compound: C1CN(CCC1(C(=O)N[C@@H](CCO)C2=CC=C(C=C2)Cl)N)C3=NC=NC4=C3C=CN4 [AZD5363]; settings: max 10 µM
Outline: (§1)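 Following 24 hours at 37°C and 5% CO2, cancer cell lines in 1536-well plates with 7.5 μl DMEM/F12 or RPMI and 10% FBS were dosed for 72 hours, final DMSO typically being 0.2%. CellTiter-Glo 2.0 luminescence, scaled between blank-well and DMSO-well means, gave the viability readout. Dose responses were fitted to a two-parameter logistic curve with a non-linear mixed effects model, and the single-agent IC50 was derived from this fit.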

Doxorubicin = compound: COc1cccc2c1C(=O)c1c(O)c3c(c(O)c1C2=O)C[C@@](O)(C(=O)CO)C[C@@H]3O[C@H]1C[C@H](N)[C@H](O)[C@H](C)O1 [Doxorubicin]; settings: max 1 µM
Outline: as §1

AZD0156 = compound: CN(C)CCCOc1ccc(-c2ccc3ncc4c(c3c2)n(C2CCOCC2)c(=O)n4C)cn1 [AZD0156]; settings: max 3 µM
Outline: as §1

AZD4320 = compound: CN(CC[C@H](CSC1=CC=CC=C1)NC2=C(C=C(C=C2)S(=O)(=O)NC(=O)C3=CC=C(C=C3)N4CCC(CC4)[C@H](C5=CC=CC=C5C6=CC=C(C=C6)Cl)O)S(=O)(=O)C(F)(F)F)CCO [AZD4320]; settings: max 1 µM
Outline: as §1

Gemcitabine = compound: Nc1ccn([C@@H]2O[C@H](CO)[C@@H](O)C2(F)F)c(=O)n1 [Gemcitabine]; settings: max 0.3 µM
Outline: as §1

Venetoclax = compound: CC1(C)CCC(CN2CCN(c3ccc(C(=O)NS(=O)(=O)c4ccc(NCC5CCOCC5)c([N+](=O)[O-])c4)c(Oc4cnc5[nH]ccc5c4)c3)CC2)=C(c2ccc(Cl)cc2)C1 [Venetoclax]; settings: max 1 µM
Outline: as §1

SRA737 = compound: N#Cc1cnc(Nc2cc(NC[C@H]3CNCCO3)c(C(F)(F)F)cn2)cn1 [SRA737]; settings: max 10 µM
Outline: as §1

Etoposide = compound: COc1cc([C@@H]2c3cc4c(cc3[C@@H](O[C@@H]3O[C@@H]5CO[C@@H](C)O[C@H]5[C@H](O)[C@H]3O)[C@H]3COC(=O)[C@H]23)OCO4)cc(OC)c1O [Etoposide]; settings: max 10 µM
Outline: as §1

[1] = compound: O=C(Nc1ccc2[nH]nc(-c3ccncc3)c2c1)[C@@H]1CCN(CC(=O)N2CCN(c3ccc(-c4ncccn4)cc3)CC2)C1; settings: max 5 µM
Outline: as §1

AZD1390 = compound: CC(C)n1c(=O)n(C)c2cnc3cc(F)c(-c4ccc(OCCCN5CCCCC5)nc4)cc3c21 [AZD1390]; settings: max 0.3 µM
Outline: as §1

Trametinib = compound: CC(=O)Nc1cccc(-n2c(=O)n(C3CC3)c(=O)c3c(Nc4ccc(I)cc4F)n(C)c(=O)c(C)c32)c1 [Trametinib]; settings: max 1 µM
Outline: as §1

Paclitaxel = compound: CC(=O)O[C@H]1C(=O)[C@@]2(C)[C@H]([C@H](OC(=O)c3ccccc3)[C@]3(O)C[C@H](OC(=O)[C@H](O)[C@@H](NC(=O)c4ccccc4)c4ccccc4)C(C)=C1C3(C)C)[C@]1(OC(C)=O)CO[C@@H]1C[C@@H]2O [Paclitaxel]; settings: max 3 µM
Outline: as §1

Carboplatin = compound: C1CC(C1)(C(=O)[O-])C(=O)[O-].N.N.[Pt+2] [Carboplatin]; settings: max 10 µM
Outline: as §1

Crizotinib = compound: C[C@@H](Oc1cc(-c2cnn(C3CCNCC3)c2)cnc1N)c1c(Cl)ccc(F)c1Cl [Crizotinib]; settings: max 10 µM
Outline: as §1

MK-2206 = compound: NC1(c2ccc(-c3nc4ccn5c(=O)[nH]nc5c4cc3-c3ccccc3)cc2)CCC1 [MK-2206]; settings: max 10 µM
Outline: as §1

AZD6738 = compound: C[C@@H]1COCCN1C2=NC(=NC(=C2)C3(CC3)[S@](=N)(=O)C)C4=C5C=CNC5=NC=C4 [AZD6738]; settings: max 10 µM
Outline: as §1

SN-38 = compound: CCc1c2c(nc3ccc(O)cc13)-c1cc3c(c(=O)n1C2)COC(=O)[C@]3(O)CC [SN-38]; settings: max 0.3 µM
Outline: as §1

Selumetinib = compound: Cn1cnc2c(F)c(Nc3ccc(Br)cc3Cl)c(C(=O)NOCCO)cc21 [Selumetinib]; settings: max 10 µM
Outline: as §1

Alisertib = compound: COc1cc(Nc2ncc3c(n2)-c2ccc(Cl)cc2C(c2c(F)cccc2OC)=NC3)ccc1C(=O)O [Alisertib]; settings: max 10 µM
Outline: as §1

AZD1775 = compound: C=CCn1c(=O)c2cnc(Nc3ccc(N4CCN(C)CC4)cc3)nc2n1-c1cccc(C(C)(C)O)n1 [AZD1775]; settings: max 3 µM
Outline: as §1

Savolitinib = compound: C[C@@H](c1ccc2nccn2c1)n1nnc2ncc(-c3cnn(C)c3)nc21 [Savolitinib]; settings: max 1 µM
Outline: as §1

SG3199 = compound: CC1=CN2[C@@H](C1)C=NC3=CC(=C(C=C3C2=O)OC)OCCCCCOC4=C(C=C5C(=C4)N=C[C@@H]6CC(=CN6C5=O)C)OC [SG3199]; settings: max 0.001 µM
Outline: as §1

Lapatinib = compound: CS(=O)(=O)CCNCc1ccc(-c2ccc3ncnc(Nc4ccc(OCc5cccc(F)c5)c(Cl)c4)c3c2)o1 [Lapatinib]; settings: max 10 µM
Outline: as §1

5-Fluorouracil = compound: O=c1[nH]cc(F)c(=O)[nH]1 [5-Fluorouracil]; settings: max 20 µM
Outline: as §1

Dasatinib = compound: CC1=C(C(=CC=C1)Cl)NC(=O)C2=CN=C(S2)NC3=CC(=NC(=N3)C)N4CCN(CC4)CCO [Dasatinib]; settings: max 2 µM
Outline: as §1

Olaparib = compound: O=C(c1cc(Cc2n[nH]c(=O)c3ccccc23)ccc1F)N1CCN(C(=O)C2CC2)CC1 [Olaparib]; settings: max 10 µM
Outline: as §1

Palbociclib = compound: CC(=O)c1c(C)c2cnc(Nc3ccc(N4CCNCC4)cn3)nc2n(C2CCCC2)c1=O [Palbociclib]; settings: max 10 µM
Outline: as §1

Taselisib = compound: Cc1nc(-c2cn3c(n2)-c2ccc(-c4cnn(C(C)(C)C(N)=O)c4)cc2OCC3)n(C(C)C)n1 [Taselisib]; settings: max 10 µM
Outline: as §1

AZD2811 = compound: CCN(CCO)CCCOc1ccc2c(Nc3cc(CC(=O)Nc4cccc(F)c4)[nH]n3)ncnc2c1 [AZD2811]; settings: max 1 µM
Outline: as §1

Gefitinib = compound: COc1cc2ncnc(Nc3ccc(F)c(Cl)c3)c2cc1OCCCN1CCOCC1 [Gefitinib]; settings: max 10 µM
Outline: as §1

AZD5153 = compound: COc1nnc2ccc(N3CCC(c4ccc(OCCN5CCN(C)C(=O)[C@H]5C)cc4)CC3)nn12 [AZD5153]; settings: max 1 µM
Outline: as §1

Prexasertib = compound: COc1cccc(OCCCN)c1-c1cc(Nc2cnc(C#N)cn2)n[nH]1 [Prexasertib]; settings: max 1 µM
Outline: as §1

AZD5991 = compound: Cc1c2c(nn1C)CSCc1cc(n(C)n1)CSc1cc(c3ccccc3c1)OCCCc1c(C(=O)O)n(C)c3c-2c(Cl)ccc13 [AZD5991]; settings: max 1 µM
Outline: as §1

AZD8186 = compound: C[C@@H](Nc1cc(F)cc(F)c1)c1cc(C(=O)N(C)C)cc2c(=O)cc(N3CCOCC3)oc12 [AZD8186]; settings: max 10 µM
Outline: as §1

AZD7648 = compound: Cc1cc2ncnn2cc1Nc1ncc2c(n1)n(C1CCOCC1)c(=O)n2C [AZD7648]; settings: max 10 µM
Outline: as §1

Cell Line | IC50, cell viability 72 h (AZD5363) [µM] | IC50, cell viability 72 h (Doxorubicin) [µM] | IC50, cell viability 72 h (AZD0156) [µM] | IC50, cell viability 72 h (AZD4320) [µM] | IC50, cell viability 72 h (Gemcitabine) [µM] | IC50, cell viability 72 h (Venetoclax) [µM] | IC50, cell viability 72 h (SRA737) [µM] | IC50, cell viability 72 h (Etoposide) [µM] | IC50, cell viability 72 h [1] [µM] | IC50, cell viability 72 h (AZD1390) [µM] | IC50, cell viability 72 h (Trametinib) [µM] | IC50, cell viability 72 h (Paclitaxel) [µM] | IC50, cell viability 72 h (Carboplatin) [µM] | IC50, cell viability 72 h (Crizotinib) [µM] | IC50, cell viability 72 h (MK-2206) [µM] | IC50, cell viability 72 h (AZD6738) [µM] | IC50, cell viability 72 h (SN-38) [µM] | IC50, cell viability 72 h (Selumetinib) [µM] | IC50, cell viability 72 h (Alisertib) [µM] | IC50, cell viability 72 h (AZD1775) [µM] | IC50, cell viability 72 h (Savolitinib) [µM] | IC50, cell viability 72 h (SG3199) [µM] | IC50, cell viability 72 h (Lapatinib) [µM] | IC50, cell viability 72 h (5-Fluorouracil) [µM] | IC50, cell viability 72 h (Dasatinib) [µM] | IC50, cell viability 72 h (Olaparib) [µM] | IC50, cell viability 72 h (Palbociclib) [µM] | IC50, cell viability 72 h (Taselisib) [µM] | IC50, cell viability 72 h (AZD2811) [µM] | IC50, cell viability 72 h (Gefitinib) [µM] | IC50, cell viability 72 h (AZD5153) [µM] | IC50, cell viability 72 h (Prexasertib) [µM] | IC50, cell viability 72 h (AZD5991) [µM] | IC50, cell viability 72 h (AZD8186) [µM] | IC50, cell viability 72 h (AZD7648) [µM]
HCC-78 (Lung Adenocarcinoma) | > 10 | 0.493 | > 3 | > 1 | 0.0327 | > 1 | > 10 | 2.35 | > 5 | > 0.3 | > 1 | > 3 | > 10 | 9.58 | > 10 | > 10 | 0.00704 | > 10 | > 10 | 1.38 | > 1 | > 0.001 | > 10 | > 20 | > 2 | > 10 | > 10 | 5.89 | > 1 | > 10 | > 1 | 0.0996 | > 1 | > 10 | > 10
HO-1-N-1 (Oral Cavity Carcinoma) | > 10 | 0.0842 | > 3 | > 1 | 0.00622 | > 1 | > 10 | 1.26 | 2.26 | > 0.3 | 0.417 | < 0.003 | > 10 | 5.58 | > 10 | 5.59 | 0.0044 | > 10 | 0.0687 | 1.52 | > 1 | > 0.001 | 7.3 | 17.6 | 0.581 | > 10 | > 10 | 1.96 | 0.409 | 8.37 | 0.202 | 0.0601 | 0.788 | > 10 | > 10
HOS (Osteosarcoma) | > 10 | 0.792 | > 3 | > 1 | > 0.3 | > 1 | > 10 | 4.34 | > 5 | > 0.3 | > 1 | 0.0972 | > 10 | > 10 | > 10 | 8.43 | 0.0294 | > 10 | > 10 | 1.03 | > 1 | > 0.001 | > 10 | > 20 | > 2 | > 10 | > 10 | > 10 | > 1 | > 10 | 0.996 | 0.0536 | > 1 | > 10 | > 10
HT-1376 (Bladder Carcinoma) | > 10 | > 1 | > 3 | > 1 | > 0.3 | > 1 | > 10 | > 10 | > 5 | > 0.3 | > 1 | > 3 | > 10 | > 10 | > 10 | > 10 | > 0.3 | > 10 | > 10 | > 3 | > 1 | > 0.001 | > 10 | > 20 | > 2 | > 10 | > 10 | > 10 | > 1 | > 10 | > 1 | > 1 | > 1 | > 10 | > 10
TE-15 (Esophageal Squamous Cell Carcinoma) | > 10 | 0.884 | > 3 | > 1 | 0.0255 | > 1 | 4.13 | 4.55 | 3.95 | > 0.3 | 0.693 | 0.00903 | > 10 | > 10 | > 10 | 4.29 | 0.00974 | 8.21 | > 10 | 1.84 | > 1 | > 0.001 | 0.712 | > 20 | 0.136 | > 10 | > 10 | 2.23 | > 1 | – | 0.658 | 0.0406 | > 1 | > 10 | > 10
